Results published in ChEMBL document CHEMBL1201862, “PubChem BioAssay data set” (2004).
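Compound exposure: 48 hours, 5 concentrations, 96-well plates. Here, GI50 denotes the concentration required for 50% inhibition of growth.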 The source made the active and inactive calls. Rule as the data show it: active = GI50 up to about 1.1 µM and inactive = higher.

How the values were obtained:
Test in all cases: inhibition of tumour cell growth, NCI panel, 48 h
KM12 = system: KM12
SF-295 = system: SF-295
COLO 205 = system: COLO 205
MOLT-4 = system: MOLT-4
LOX IMVI = system: LOX IMVI
PC-3 = system: PC-3
BT-549 = system: BT-549
K562 = system: K562
M14 = system: M14
RPMI-8226 = system: RPMI-8226
SF-268 = system: SF-268
ACHN = system: ACHN
SK-OV-3 = system: SK-OV-3
SF-539 = system: SF-539
OVCAR-8 = system: OVCAR-8
OVCAR-3 = system: OVCAR-3
MCF7 = system: MCF7
CAKI-1 = system: CAKI-1
TK-10 = system: TK-10
T47D = system: T47D

Row | SMILES | GI50 (KM12) | GI50 (SF-295) | GI50 (COLO 205) | GI50 (MOLT-4) | GI50 (LOX IMVI) | GI50 (PC-3) | GI50 (BT-549) | GI50 (K562) | GI50 (M14) | GI50 (RPMI-8226) | GI50 (SF-268) | GI50 (ACHN) | GI50 (SK-OV-3) | GI50 (SF-539) | GI50 (OVCAR-8) | GI50 (OVCAR-3) | GI50 (MCF7) | GI50 (CAKI-1) | GI50 (TK-10) | GI50 (T47D)
1 | COC(=O)[C@@]12CCCC(=O)[C@@H]1[C@H]1CCC[C@H]12 | > 100 µM (inactive) | > 100 µM (inactive) | > 100 µM (inactive) | > 100 µM (inactive) | > 100 µM (inactive) | > 100 µM (inactive) | > 100 µM (inactive) | > 100 µM (inactive) | > 100 µM (inactive) | > 100 µM (inactive) | > 100 µM (inactive) | > 100 µM (inactive) | > 100 µM (inactive) | > 100 µM (inactive) | > 100 µM (inactive) | > 100 µM (inactive) | > 100 µM (inactive) | > 100 µM (inactive) | > 100 µM (inactive) | 
2 | O=[N+]([O-])C(=C(Nc1ccccc1)Nc1ccccc1)/C(Cl)=C(\Cl)Br | 12.3 µM (inactive) | 14.8 µM (inactive) | > 10 µM (inactive) | 3.1 µM (inactive) | 3.27 µM (inactive) | 15.6 µM (inactive) | 21.7 µM (inactive) | 2.92 µM (inactive) | 4.89 µM (inactive) | 3.61 µM (inactive) | 16.8 µM (inactive) | 11.4 µM (inactive) |  | 22 µM (inactive) | 16.5 µM (inactive) | 5.18 µM (inactive) | 12.5 µM (inactive) |  |  | 12.7 µM (inactive)
3 | Cn1c(=O)c2c(nc3n(Cc4ccccc4)c(=O)c(NCCCBr)cn23)n(C)c1=O | > 100 µM (inactive) | 31.8 µM (inactive) | > 100 µM (inactive) | 19.2 µM (inactive) | 99.1 µM (inactive) | > 100 µM (inactive) | > 100 µM (inactive) | > 100 µM (inactive) | > 100 µM (inactive) | > 100 µM (inactive) | 41.2 µM (inactive) | 32.6 µM (inactive) | 36.6 µM (inactive) |  | 84.9 µM (inactive) | > 100 µM (inactive) | > 100 µM (inactive) | > 100 µM (inactive) | 38.5 µM (inactive) | > 100 µM (inactive)
4 | CO/C(=N\N=C\c1ccc(Cl)cc1Cl)c1ccncc1 | > 10 µM (inactive) | > 10 µM (inactive) | > 10 µM (inactive) | > 10 µM (inactive) | > 10 µM (inactive) | > 10 µM (inactive) | > 10 µM (inactive) | > 10 µM (inactive) | > 10 µM (inactive) | 6.24 µM (inactive) | > 10 µM (inactive) | > 10 µM (inactive) |  |  | > 10 µM (inactive) | > 10 µM (inactive) | > 10 µM (inactive) | > 10 µM (inactive) | > 10 µM (inactive) | 7.69 µM (inactive)
5 | Nc1cccc2cc(Cl)cnc12 | > 100 µM (inactive) | > 100 µM (inactive) | > 100 µM (inactive) | 37.2 µM (inactive) | > 100 µM (inactive) | 97.1 µM (inactive) | > 100 µM (inactive) | > 100 µM (inactive) | > 100 µM (inactive) | > 100 µM (inactive) | > 100 µM (inactive) | > 100 µM (inactive) | > 100 µM (inactive) | > 100 µM (inactive) | > 100 µM (inactive) | 96.8 µM (inactive) |  | > 100 µM (inactive) | > 100 µM (inactive) | 15.2 µM (inactive)
6 | Cc1c(-c2ccc(O)c(O)c2)oc(=O)c2c(O)cccc12 | 10.1 µM (inactive) | 17.7 µM (inactive) | 9.71 µM (inactive) | 3.02 µM (inactive) |  | 12.9 µM (inactive) | 6.24 µM (inactive) | 4.85 µM (inactive) | 8.05 µM (inactive) | 13.7 µM (inactive) | 9.1 µM (inactive) | 20 µM (inactive) | 6.04 µM (inactive) | 12.5 µM (inactive) | 53.3 µM (inactive) | 11.6 µM (inactive) | 6.68 µM (inactive) | 7.35 µM (inactive) | 12.2 µM (inactive) | 1.55 µM (inactive)
7 | CO/N=C(\C(=O)Nn1cn[n+](CC(=O)[O-])c1)c1csc(N)n1 | > 10 µM (inactive) |  | > 10 µM (inactive) | > 10 µM (inactive) | > 10 µM (inactive) |  | > 10 µM (inactive) | > 10 µM (inactive) | > 10 µM (inactive) | > 10 µM (inactive) | > 10 µM (inactive) | > 10 µM (inactive) | > 10 µM (inactive) |  | > 10 µM (inactive) |  | > 10 µM (inactive) | > 10 µM (inactive) | > 10 µM (inactive) | > 10 µM (inactive)
8 | O=C1C(Cl)=C(Oc2ccc([N+](=O)[O-])cc2)C(=O)c2c(O)ccc(O)c21 | > 100 µM (inactive) | > 100 µM (inactive) | 19.9 µM (inactive) | 5.85 µM (inactive) |  | > 100 µM (inactive) | 49.3 µM (inactive) | 13.3 µM (inactive) | > 47.8 µM (inactive) | 21 µM (inactive) | > 61.8 µM (inactive) | 54.2 µM (inactive) | > 100 µM (inactive) | > 100 µM (inactive) | > 100 µM (inactive) | 33.6 µM (inactive) | 46.1 µM (inactive) |  | 44.1 µM (inactive) | 29.9 µM (inactive)
9 | COc1cc2cc(C(=O)N3CC(CCl)c4ccc([N+](C)(C)Cc5ccc([N+](=O)[O-])cc5)cc43)[nH]c2c(OC)c1OC (centres undefined) | 2.77 µM (inactive) | 2.58 µM (inactive) | 3.25 µM (inactive) | 2.1 µM (inactive) |  | 2.09 µM (inactive) | 5.74 µM (inactive) | 1.92 µM (inactive) | 5.68 µM (inactive) | 2.01 µM (inactive) | 3.39 µM (inactive) | 2.29 µM (inactive) | 2.28 µM (inactive) | 1.78 µM (inactive) | 1.75 µM (inactive) | 1.96 µM (inactive) | 2.14 µM (inactive) | 2.05 µM (inactive) | 1.86 µM (inactive) | 3.48 µM (inactive)
10 | CS(=O)(=O)Nc1ccc(N2Cc3c[nH]c4ccc5nccc2c5c34)cc1 | 17.6 µM (inactive) | 27.7 µM (inactive) | 11.9 µM (inactive) | 2.72 µM (inactive) | 12.2 µM (inactive) | 16.1 µM (inactive) | 21.8 µM (inactive) | 11.4 µM (inactive) | 15.5 µM (inactive) | 20.3 µM (inactive) |  | 28.6 µM (inactive) |  |  | 13.7 µM (inactive) | 9.98 µM (inactive) | 8.65 µM (inactive) | 31.5 µM (inactive) | 23 µM (inactive) | 3.5 µM (inactive)
11 | CCNCCNC(=O)c1ccc(Br)cc1 | > 100 µM (inactive) |  |  | > 100 µM (inactive) | > 100 µM (inactive) | > 100 µM (inactive) | > 100 µM (inactive) | > 100 µM (inactive) | > 100 µM (inactive) | > 100 µM (inactive) | > 100 µM (inactive) | > 100 µM (inactive) | > 100 µM (inactive) | > 100 µM (inactive) | > 100 µM (inactive) | > 100 µM (inactive) | > 100 µM (inactive) | > 100 µM (inactive) | > 100 µM (inactive) | 
12 | CC(=O)OCC1OC(SC2=N/C(=C\c3cc4c(=O)c5ccccc5sc4s3)C(=O)N2c2ccccc2)C(OC(C)=O)C(OC(C)=O)C1OC(C)=O (centres undefined) | > 100 µM (inactive) | > 100 µM (inactive) | > 100 µM (inactive) | 20.6 µM (inactive) | 55.1 µM (inactive) | > 100 µM (inactive) | 63.8 µM (inactive) | 53.1 µM (inactive) |  | 50.9 µM (inactive) | > 100 µM (inactive) | > 100 µM (inactive) |  |  | > 100 µM (inactive) | > 100 µM (inactive) | 78.7 µM (inactive) | > 100 µM (inactive) | > 100 µM (inactive) | > 100 µM (inactive)
13 | O=C(O)CN1C(=O)c2ccc(NC(=O)C(=O)O)cc2S1(=O)=O | > 100 µM (inactive) | > 100 µM (inactive) | > 100 µM (inactive) | > 100 µM (inactive) | > 100 µM (inactive) | > 100 µM (inactive) | > 100 µM (inactive) | > 100 µM (inactive) | > 100 µM (inactive) | > 100 µM (inactive) | > 100 µM (inactive) | > 100 µM (inactive) | > 100 µM (inactive) |  |  |  | > 100 µM (inactive) | > 100 µM (inactive) | > 100 µM (inactive) | > 100 µM (inactive)
14 | CC(=O)Oc1ccc2[nH]c3c(C)c4cccc-4ccc3c2c1 | 2.44 µM (inactive) | 2.02 µM (inactive) |  | 3.13 µM (inactive) | 2.18 µM (inactive) | 1.87 µM (inactive) | 2.34 µM (inactive) | 3.79 µM (inactive) | 2.17 µM (inactive) | 3.03 µM (inactive) | 2.02 µM (inactive) | 1.79 µM (inactive) | 2.02 µM (inactive) |  | 2.1 µM (inactive) | 1.62 µM (inactive) | 2.65 µM (inactive) | 1.86 µM (inactive) | 1.87 µM (inactive) | 2.43 µM (inactive)
15 | CC(C)(O)CCc1ccc(O)c2c(=O)c3c(O)c4c(cc3oc12)O[C@H]1OC=C[C@@]41O [AUSTOCYSTIN D] | < 0.01 µM (active) | 8.87 µM (inactive) | 0.0109 µM (active) | < 0.0106 µM (active) | 9.31 µM (inactive) | 0.119 µM (active) | 9.06 µM (inactive) | 20 µM (inactive) | 0.411 µM (active) | 0.475 µM (active) | 0.056 µM (active) | < 0.01 µM (active) | 0.0125 µM (active) | 0.514 µM (active) | < 0.01 µM (active) | < 0.01 µM (active) | < 0.01 µM (active) | < 0.01 µM (active) | < 0.01 µM (active) | 
